Measurements taken from paper PMC11794977, “Inhibitory Potential and Binding Thermodynamics of Scyllatoxin‐Based BH3 Domain Mimetics Targeting Repressor BCL2 Proteins” (Journal of Molecular Recognition, 2025).
Where a SMILES comes first, the peptide text is derived from it.

How the values were obtained:
[1] = molecular target: Bcl‐2‐ΔTM (UniProt P10415); assay: Isothermal titration calorimetry (ITC); format: binding; settings: 25°C; for n (number of sites): 20 μM Bcl‐2‐ΔTM in cell, 200 μM peptide injected; for n (number of sites) / TΔS / ΔH: binding buffer pH 8.0, ± SD, SD; for ΔG: binding buffer pH 8.0, calculated as ΔH − TΔS
Bcl‐2‐ΔTM, sequence (P10415 whole entry, stated change not applied): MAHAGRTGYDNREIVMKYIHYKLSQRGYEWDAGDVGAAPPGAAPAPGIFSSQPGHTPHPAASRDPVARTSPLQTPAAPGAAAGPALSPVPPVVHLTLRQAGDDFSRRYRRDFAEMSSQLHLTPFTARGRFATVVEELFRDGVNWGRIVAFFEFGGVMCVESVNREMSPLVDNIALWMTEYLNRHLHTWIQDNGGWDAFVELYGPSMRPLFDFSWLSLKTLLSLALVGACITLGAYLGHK
Method: All ITC experiments were performed in triplicate using a MicroCal 200 ITC instrument (Malvern Panalytical) at 25°C. To initiate ITC experiments, the sample cell was filled with 250 μL of binding buffer supplemented with 20 μM Bcl‐2‐ΔTM. Acetylated peptides were then diluted to a final concentration of 200 μM in binding buffer and injected into the sample cell at 2 μL volumes using a 6 s injection time and a 150 s delay between each injection. Data analysis was performed using MicroCal Origin software v7.0. Non‐linear curves were fit using Equation (3) adapted from the instrument manual: (3) ΔQ=nMtΔHVo/21+Xt/nMt+1/nKaMt−1+Xt/nMt+1/nKaMt^2−4Xt/nMt where, ΔQ is the heat content released or absorbed by each injection. ΔH is the enthalpy change of ligand binding and M t is bulk concentration of Bcl‐2‐ΔTM. V o is the cell volume of Bcl‐2‐ΔTM and K a is the affinity constant. X t is bulk concentration of peptide and n is the number of sites occupied by the peptide. Dissociation constants (K d) for all peptides were calculated by taking the reciprocal of the K a .
ΔG values were calculated from the Gibbs free energy Equation (4) using Origin‐fitted values of ΔH and program‐calculated values of ΔS. (4) ΔG=ΔΗ−ΤΔS

[2] = molecular target: Bcl‐2‐ΔTM (UniProt P10415); assay: FP competitive binding assay; settings: fluorescence polarization; 100 nM Bcl‐2‐ΔTM and 25 nM ^FluBax‐BH3^ΔB pre-incubated 1 h, competitor 100 μM to 2.3 pM, further 1 h, ambient temperature; binding buffer 50 mM Tris, 100 mM NaCl, pH 8.0; triplicate; read-out: IC50 (competition with ^FluBax‐BH3^ΔB for Bcl‐2‐ΔTM)
Method: FP competitive binding assays were performed in triplicate on black 384‐well plates (#3575, Corning, Corning, NY) using a SpectraMax M5e multi‐mode plate reader (Molecular Devices, Sunnyvale, CA). For these experiments, 100 nM Bcl‐2‐ΔTM and 25 nM ^FluBax‐BH3^ΔB were initially co‐incubated for 1 h in binding buffer at ambient temperature in the dark. Following pre‐incubation, serial dilutions of acetylated peptides (100 μM to 2.3 pM) were added, and the solutions were allowed to incubate for an additional 1 h at ambient temperature in the dark. This incubation time was deemed sufficient for binding reactions to reach equilibrium, as judged by an absence of change in the observed polarization value of the sample with the lowest protein concentration over 4 h (data not shown). Following incubation, the fluorescence polarization of each sample was measured using an excitation wavelength of 498 nm and an emission wavelength of 525 nm. An average of 100 reads were recorded for each well. […]

Row | Compound | n (number of sites) ([1]; 3 trials) | ΔG ([1]; ± SD, 3 trials) [kcal/mol] | TΔS ([1]; 3 trials) [kcal/mol] | ΔH ([1]; 3 trials) [kcal/mol] | IC50 [2] [nM] | Kd ([1]; binding buffer pH 8.0, reciprocal of K a, ± SD, 3 trials) [nM] | difference in ΔG, complex more stable than that of ^AcScTx‐Bax^ΔΔΔ ([1]; versus ^AcScTx‐Bax^ΔΔΔ) [kcal/mol] | enthalpic contribution less favorable than with ^AcBax‐BH3^ΔB ([1]; versus ^AcBax‐BH3^ΔB) [kcal/mol] | difference in ΔG, binds more favorably than ^AcScTx‐Bax^ΔΔ,8–26 ([1]; versus ^AcScTx‐Bax^ΔΔ,8–26) [kcal/mol]
1 | CC[C@H](NC(=O)[C@H](CO)NC(=O)CNC(C)=O)C(=O)N[C@@H](CCCCN)C(=O)N[C@@H](CCCCN)C(=O)N[C@@H](CC(C)C)C(=O)N[C@@H](CO)C(=O)N[C@H]1CSSC[C@@H](C(=O)N[C@@H](CCC(=O)O)C(=O)N[C@@H](CC)C(=O)N[C@H](C(=O)N[C@@H](CCCCN)C(=O)N[C@@H](Cc2c[nH]cn2)C(N)=O)C(C)C)NC(=O)[C@H](CCCCN)NC(=O)[C@H](CC(=O)O)NC(=O)CNC(=O)[C@H]([C@@H](C)CC)NC(=O)[C@H](CC)NC(=O)[C@H](CCCCN)NC(=O)CNC(=O)[C@H](CC(C)C)NC(=O)[C@H](CC(C)C)NC(=O)CNC(=O)[C@H](CC(=O)O)NC(=O)CNC(=O)[C@H]([C@@H](C)CC)NC(=O)[C@H](CC)NC(=O)[C@H](CCCCN)NC(=O)[C@H](CC(C)C)NC(=O)[C@H](CC)NC1=O [^AcScTx‐Bax^ΔΔ,8–26] (HELM PEPTIDE1{[ac].G.S.[Abu].K.K.L.S.C.[Abu].L.K.[Abu].I.G.D.G.L.L.G.K.[Abu].I.G.D.K.C.E.[Abu].V.K.H.[am]}$PEPTIDE1,PEPTIDE1,9:R3-27:R3$$$V2.0) | 1.13 ± 0.08 | -7.51 ± 0.12 | 1.63 ± 0.03 | -5.88 ± 0.15 |  |  |  |  | 
2 | CC[C@H](NC(=O)[C@H](CCC(=O)O)NC(=O)[C@H](CO)NC(=O)[C@H](CC(C)C)NC(=O)[C@H](CCCCN)NC(=O)[C@H](CCCCN)NC(=O)[C@@H](NC(=O)[C@H](CO)NC(=O)CNC(C)=O)[C@@H](C)O)C(=O)N[C@@H](CC(C)C)C(=O)N[C@@H](CCCCN)C(=O)N[C@@H](CCCNC(=N)N)C(=O)N[C@H](C(=O)NCC(=O)N[C@@H](CC(=O)O)C(=O)N[C@@H](CCC(=O)O)C(=O)N[C@@H](CC(C)C)C(=O)N[C@@H](CC(=O)O)C(=O)N[C@@H](CO)C(=O)N[C@@H](CC(N)=O)C(=O)N[C@@H](CCSC)C(N)=O)[C@@H](C)CC [^AcBax‐BH3^ΔB, reference compound] (HELM PEPTIDE1{[ac].G.S.T.K.K.L.S.E.[Abu].L.K.R.I.G.D.E.L.D.S.N.M.[am]}$$$$V2.0) | 0.93 ± 0.05 | -10.02 ± 0.89 | 4.58 ± 0.20 | -5.43 ± 0.73 | 141 | 191 ± 27.5 | 1.53 |  | 
3 | CC[C@H](NC(=O)[C@H](CO)NC(=O)CNC(C)=O)C(=O)N[C@@H](CCCCN)C(=O)N[C@@H](CCCCN)C(=O)N[C@@H](CC(C)C)C(=O)N[C@@H](CO)C(=O)N[C@@H](CC)C(=O)N[C@@H](CC)C(=O)N[C@@H](CC(C)C)C(=O)N[C@@H](CCCCN)C(=O)N[C@@H](CC)C(=O)N[C@H](C(=O)NCC(=O)N[C@@H](CC(=O)O)C(=O)NCC(=O)N[C@@H](CC(C)C)C(=O)N[C@@H](CC(C)C)C(=O)NCC(=O)N[C@@H](CCCCN)C(=O)N[C@@H](CC)C(=O)N[C@H](C(=O)NCC(=O)N[C@@H](CC(=O)O)C(=O)N[C@@H](CCCCN)C(=O)N[C@@H](CC)C(=O)N[C@@H](CCC(=O)O)C(=O)N[C@@H](CC)C(=O)N[C@H](C(=O)N[C@@H](CCCCN)C(=O)N[C@@H](Cc1c[nH]cn1)C(N)=O)C(C)C)[C@@H](C)CC)[C@@H](C)CC [^AcScTx‐Bax^ΔΔΔ] (HELM PEPTIDE1{[ac].G.S.[Abu].K.K.L.S.[Abu].[Abu].L.K.[Abu].I.G.D.G.L.L.G.K.[Abu].I.G.D.K.[Abu].E.[Abu].V.K.H.[am]}$$$$V2.0) | 0.90 ± 0.09 | -8.49 ± 0.33 | 4.64 ± 0.11 | -3.85 ± 0.33 |  |  |  | 1.58 | ~1
